Test system: peripheral blood mononuclear cells (PBMCs)
Assay: XF substrate oxidation stress test (Seahorse XFp, oxygen consumption rate)
Type: cell-based, human
Details: for basal respiration after blocking / maximal respiration after blocking: PBMCs of patients with COVID-19, BPTES 3 μM, etomoxir 4 μM, UK5099 2 μM
Description: Blood samples were obtained from the study participants. PBMCs were separated and plated on XFp eight-well polystyrene plates designed for the Seahorse XFp analyzer (Agilent Technologies, Santa Clara, Calif.) within 2 h. The Seahorse XFp analyzer (Agilent Technologies) was used to measure basal, ATP-linked, and maximal oxygen consumption rate (OCR); reserve capacity; and extracellular acidification rate (ECAR).
OCR, a measurement of mitochondrial respiration, and ECAR, which correlates to the number of protons released from the cell with potential contribution from glycolysis and the Krebs cycle, were measured in the presence of specific mitochondrial activators and inhibitors. Oligomycin (ATP synthase blocker) was used to measure ATP turnover and to determine proton leak; the mitochondrial uncoupler carbonyl cyanide 4-[trifluoromethoxy] phenylhydrazone (FCCP) was used to measure maximum respiratory function (maximal OCR).
Reserve capacity was calculated as maximal OCR minus the basal respiration.
For a measurement of basal respiration, three measurements were taken before injecting ATP synthase inhibitor oligomycin at 0.75 μM (final concentration). FCCP was then injected at 0.75 μM. Finally, a mixture of rotenone and antimycin A (1 μM) was injected. Mitochondrial basal respiration, proton leak, reserve capacity, and maximal respiration were measured after correcting for nonmitochondrial respiration.
OCR and ECAR rates were normalized to cell count for PBMCs.

Row | SMILES | basal respiration after blocking | maximal respiration after blocking | maximal respiration after blocking the glucose pathway (PBMCs of healthy controls (HC), before blocking=37±25) | basal respiration after blocking the glucose pathway (PBMCs of healthy controls (HC), before blocking=80±33) | basal respiration after blocking the glucose pathway (PBMCs of patients with chest infection, before blocking=200±35) | maximal respiration after blocking the glucose pathway (PBMCs of patients with chest infection, before blocking=589±16)
1 | CCOC(=O)[C@@]1(CCCCCCOc2ccc(Cl)cc2)CO1 [etomoxir] | 128±2 | 255±16 | – | – | – | –
2 | N#C/C(=C\c1cn(-c2ccccc2)c2ccccc12)C(=O)O [UK5099] | 128±5 | 254±24 | 34±5 | 52±28 | 195±33 | 558±19

Reference: patent US20230149493A1, “COMPOSITIONS AND METHODS FOR TREATING COVID-19 AND SYMPTOMS THEREOF” (YUVA BIOSCIENCES, INC., priority 2021, published 2023)
